What was measured:
Experiment in all cases: Antimicrobial efficacy (European Pharmacopoeia 2000, Chapter 5.1.3)
Format in all cases: cell-based
Ps. aeruginosa = conditions: 400 mg/ml
Protocol: (§1) The antimicrobial efficacy was tested for three different solutions:
(§2) i) α-(2,4-disulfophenyl)-N-tert-butylnitrone disodium salt, 10 mg/ml;
(§3) ii) α-(2,4-disulfophenyl)-N-tert-butylnitrone disodium salt, 400 mg/ml; and
(§4) iii) a carbonate buffer control.
(§5) The tests were performed according to European Pharmacopoeia 2000, Chapter 5.1.3, pages 259 to 260. Seven 10 ml vials were inoculated, one per test organism. During the tests, the vials were stored at controlled room temperature and protected from light. At different time intervals, samples were withdrawn and after appropriate dilutions the numbers of viable microorganisms (colony forming units per ml, CFU/ml) were determined using standard plate count procedures.

Bur. cepacia = system: Bur. cepacia
Protocol: as §1, §2, §3, §4, §5

C. albicans = system: C. albicans
Protocol: as §1, §2, §3, §4, §5

A. niger = system: A. niger
Protocol: as §1, §2, §3, §4, §5

CC(C)(C)[N+]([O-])=Cc1ccc(S(=O)(=O)[O-])cc1S(=O)(=O)[O-].[Na+].[Na+] [α-(2,4-disulfophenyl)-N-tert-butylnitrone disodium salt]
Number of CFUs per ml - Time after Inoculation (Ps. aeruginosa; 14 days): <1 CFUs per ml | Number of CFUs per ml - Time after Inoculation (Ps. aeruginosa; 21 days): <1 CFUs per ml | Number of CFUs per ml - Time after Inoculation (Ps. aeruginosa; 28 days): <1 CFUs per ml | Number of CFUs per ml - Time after Inoculation (Ps. aeruginosa; <1 min): 1.1 × 10^4 CFUs per ml | Reduction in colony forming units per ml (CFU/ml) (Ps. aeruginosa; within 6 hours): ≥ 10^3 fold | Number of CFUs per ml - Time after Inoculation (Bur. cepacia; 10 mg/ml, 6 h): 1.5 × 10^3 CFUs per ml | Number of CFUs per ml - Time after Inoculation (Bur. cepacia; 10 mg/ml, 24 h): <1 CFUs per ml | Number of CFUs per ml - Time after Inoculation (Bur. cepacia; 10 mg/ml, 48 h): <1 CFUs per ml | Number of CFUs per ml - Time after Inoculation (Bur. cepacia; 10 mg/ml, 7 days): <1 CFUs per ml | Number of CFUs per ml - Time after Inoculation (Bur. cepacia; 10 mg/ml, 14 days): <1 CFUs per ml | Number of CFUs per ml - Time after Inoculation (Bur. cepacia; 10 mg/ml, 21 days): <1 CFUs per ml | Number of CFUs per ml - Time after Inoculation (Bur. cepacia; 10 mg/ml, 28 days): <1 CFUs per ml | Number of CFUs per ml - Time after Inoculation (Bur. cepacia; 10 mg/ml, <1 min): 3.5 × 10^5 CFUs per ml | Number of CFUs per ml - Time after Inoculation (Bur. cepacia; 400 mg/ml, 6 h): 8.7 × 10^1 CFUs per ml | Number of CFUs per ml - Time after Inoculation (Bur. cepacia; 400 mg/ml, 24 h): <1 CFUs per ml | Number of CFUs per ml - Time after Inoculation (Bur. cepacia; 400 mg/ml, 48 h): <1 CFUs per ml | Number of CFUs per ml - Time after Inoculation (Bur. cepacia; 400 mg/ml, 7 days): <1 CFUs per ml | Number of CFUs per ml - Time after Inoculation (Bur. cepacia; 400 mg/ml, 14 days): <1 CFUs per ml | Number of CFUs per ml - Time after Inoculation (Bur. cepacia; 400 mg/ml, 21 days): <1 CFUs per ml | Number of CFUs per ml - Time after Inoculation (Bur. cepacia; 400 mg/ml, 28 days): <1 CFUs per ml | Number of CFUs per ml - Time after Inoculation (Bur. cepacia; 400 mg/ml, <1 min): 1.1 × 10^5 CFUs per ml | Reduction in colony forming units per ml (CFU/ml) (Bur. cepacia; 400 mg/ml, within 6 hours): ≥ 10^3 fold | Number of CFUs per ml - Time after Inoculation (C. albicans; 10 mg/ml, 6 h): 7.0 × 10^5 CFUs per ml | Number of CFUs per ml - Time after Inoculation (C. albicans; 10 mg/ml, 24 h): 6.5 × 10^5 CFUs per ml | Number of CFUs per ml - Time after Inoculation (C. albicans; 10 mg/ml, 48 h): 6.5 × 10^5 CFUs per ml | Number of CFUs per ml - Time after Inoculation (C. albicans; 10 mg/ml, 7 days): <10 CFUs per ml | Number of CFUs per ml - Time after Inoculation (C. albicans; 10 mg/ml, 14 days): <1 CFUs per ml | Number of CFUs per ml - Time after Inoculation (C. albicans; 10 mg/ml, 21 days): <1 CFUs per ml | Number of CFUs per ml - Time after Inoculation (C. albicans; 10 mg/ml, 28 days): <1 CFUs per ml | Number of CFUs per ml - Time after Inoculation (C. albicans; 10 mg/ml, <1 min): 6.5 × 10^5 CFUs per ml | Number of CFUs per ml - Time after Inoculation (C. albicans; 400 mg/ml, 6 h): 3.1 × 10^4 CFUs per ml | Number of CFUs per ml - Time after Inoculation (C. albicans; 400 mg/ml, 24 h): 6.1 × 10^3 CFUs per ml | Number of CFUs per ml - Time after Inoculation (C. albicans; 400 mg/ml, 48 h): <1 CFUs per ml | Number of CFUs per ml - Time after Inoculation (C. albicans; 400 mg/ml, 7 days): <1 CFUs per ml | Number of CFUs per ml - Time after Inoculation (C. albicans; 400 mg/ml, 14 days): <1 CFUs per ml | Number of CFUs per ml - Time after Inoculation (C. albicans; 400 mg/ml, 21 days): <1 CFUs per ml | Number of CFUs per ml - Time after Inoculation (C. albicans; 400 mg/ml, 28 days): <1 CFUs per ml | Number of CFUs per ml - Time after Inoculation (C. albicans; 400 mg/ml, <1 min): 1.6 × 10^5 CFUs per ml | Number of CFUs per ml - Time after Inoculation (A. niger; 10 mg/ml, 6 h): 4.5 × 10^4 CFUs per ml | Number of CFUs per ml - Time after Inoculation (A. niger; 10 mg/ml, 24 h): 5.0 × 10^4 CFUs per ml | Number of CFUs per ml - Time after Inoculation (A. niger; 10 mg/ml, 48 h): 5.5 × 10^4 CFUs per ml | Number of CFUs per ml - Time after Inoculation (A. niger; 10 mg/ml, 7 days): 3.0 × 10^4 CFUs per ml | Number of CFUs per ml - Time after Inoculation (A. niger; 10 mg/ml, 14 days): 1.0 × 10^3 CFUs per ml | Number of CFUs per ml - Time after Inoculation (A. niger; 10 mg/ml, 21 days): 1.0 × 10^2 CFUs per ml | Number of CFUs per ml - Time after Inoculation (A. niger; 10 mg/ml, 28 days): ≦10 CFUs per ml | Number of CFUs per ml - Time after Inoculation (A. niger; 10 mg/ml, <1 min): 5.0 × 10^4 CFUs per ml | Number of CFUs per ml - Time after Inoculation (A. niger; 400 mg/ml, 6 h): 5.9 × 10^4 CFUs per ml | Number of CFUs per ml - Time after Inoculation (A. niger; 400 mg/ml, 24 h): 3.4 × 10^4 CFUs per ml | Number of CFUs per ml - Time after Inoculation (A. niger; 400 mg/ml, 48 h): 1.7 × 10^4 CFUs per ml | Number of CFUs per ml - Time after Inoculation (A. niger; 400 mg/ml, 7 days): 1.9 × 10^2 CFUs per ml | Number of CFUs per ml - Time after Inoculation (A. niger; 400 mg/ml, 14 days): <1 CFUs per ml | Number of CFUs per ml - Time after Inoculation (A. niger; 400 mg/ml, 21 days): <1 CFUs per ml | Number of CFUs per ml - Time after Inoculation (A. niger; 400 mg/ml, 28 days): <1 CFUs per ml | Number of CFUs per ml - Time after Inoculation (A. niger; 400 mg/ml, <1 min): 1.0 × 10^5 CFUs per ml

Reference: US20030181527A1, “Novel formulations of alpha-2,4-disulfophenyl-n-tert-butylnitrone” (priority 2000, published 2003)
